Tests used:
S. aureus Xen36 = assay: PET imaging of prosthetic joint infection (PJI) mouse model; type: in vivo, Balb/c mice; settings: day-2 post infection, 60 min and 120 min post tracer injection
Method: Balb/c mice was anesthetized by inhalation of a mixture of isofluorane and oxygen. A medical-grade stainless steel Kirschner wire was inserted into the distal part of the femur which has been exposed by dislocation of the patella and reamed with a 25-gauge needle. 2 μL of S. aureus Xen36 (4 log 10 CFU) will be inoculated into the knee joint and onto the wire before the surgical incision is closed with absorbable sutures. The correct position of the wire in the canal was performed with X-ray scan. The animals were imaged for bioluminescence signal in the region of the surgical joint with IVIS daily after infection. The optimal BLI signal over the joint area was determined to be day-2 post inoculation (FIG. 20A).

S. aureus Xen29 [1] = assay: PET imaging of infective endocarditis rat model; type: in vivo, Sprague-Dawley rats; settings: day-3 post infection, 60 min and 120 min post tracer injection
Text: Female Sprague-Dawley rats (weight, ˜200 g, Charles River) were maintained in an anesthetized state with an isofluorane-oxygen gas mixture during surgery. A sterile polyethylene catheter was placed and positioned in the left ventricle through a small incision via the retrograde transcarotid artery approach.
The catheter was left in place throughout the experiments. At 24-hour post-catheterization, the rats were infected intravenously through the tail vein with an inoculum of S. aureus Xen29 of 10^6 CFU in 0.5 mL sterile saline. The animals were imaged for bioluminescence signal in the region of the hearts with IVIS daily after infection. The optimal BLI signal over the heart area was determined to be day-3 post inoculation (FIG. 15A and FIG. 16A).

[2] = type: in vitro ADME, Sprague-Dawley rat; settings: rat serum, 85 min incubation
Method: FIG. 6. In vitro metabolic stability of 2-[^18F]F-ENB in rat and human plasma. (a-d) HPLC traces of metabolites of 2-[^18F]F-ENB incubated with rat plasma at different time points (2 min, 10 min, 30 min, 85 min) and spiked with cold standards.
2-[^18F]F-ENB (600 μCi) was incubated with Sprague-Dawley rat plasma (5.0 mL) at 37° C. Subsequently, 0.4 mL aliquots of the plasma were taken 2, 10, 30, and 85 min after addition of the tracer, and 0.6 mL of MeCN was added to quench the metabolism. The mixture was centrifuged at 13 400 rpm for 10 min to remove proteins, and both the supernatant and the protein pellet were analyzed by gamma counting to calculate the extraction efficiency. […] The radioactive fractions corresponding to each cold standard were collected and radioactivity was quantified using a gamma counter from which the percentage of each metabolite was calculated.

[3] = In vivo metabolite analysis in blood and urine of healthy rats (radio-HPLC); design: species or system Sprague-Dawley rats
Method: FIG. 7. Analysis of metabolites in the plasma and urine of healthy rats after intravenous injection (IV) of 2-[^18F]F-ENB. After IV administration of 2-[^18F]F-ENB, the animals were sacrificed at each time point (n=3 rats) and the blood and urine samples were collected for radio-HPLC analysis. […] The percent of each metabolite in blood (B) and urine (C) is shown.
2-[^18F]F-ENB (1 mCi) was injected via the tail vein into healthy female Sprague-Dawley rats (10 weeks old, Charles River). […] The mixture was centrifuged at 13 400 rpm for 5 min to remove the protein, and the supernatant and protein pellet were analyzed by gamma counter to determine the efficiency of extraction. […] The radioactive fractions corresponding to each cold standard were collected and analyzed using a gamma counter from which the percentage of each metabolite was calculated (n=3).
Analysis of the radioactive metabolites in the urine was performed using a similar procedure from samples obtained from the bladder 30 and 60 min after tracer injection. The urine was diluted with 45% MeCN/H2O, centrifuged at 13 400 rpm for 5 min and spiked with cold standards for radio-HPLC analysis.

S. aureus Xen29 [4] = assay: PET/CT imaging of rat triceps infection / sterile inflammation model (S. aureus Xen29); type: in vivo, Sprague-Dawley rats; settings: 180 min post tracer injection
Method: FIG. 5. PET/CT imaging of rats infected in the right triceps with the bioluminescent Xen29 strain of S. aureus. (A) Experimental design. (B) 2-[^18F]F-ENB-derived radioactivity accumulates in the infected triceps (red arrow) but not the inflamed triceps (yellow arrow) at 3 h post tracer administration.
FIG. 8. PET/CT imaging of 2-[^18F]F-NB in a rat model of S. aureus Xen29 infection. (A) Radiosynthesis of 2-[^18F]F-NB. (i) [^18F]potassium fluoride, Kryptofix222, potassium carbonate, dimethyl sulfoxide, r.t., 10 min; (ii) 2 M potassium hydroxide in H2O, 105° C., 10 min; Overall decay-corrected radiochemical yield: 26% (n=1).
FIG. 10. Time activity curve (TAC) in infected triceps, inflamed triceps and blood and biodistribution of 2-[^18F]F-NB in major organs. (a) The right triceps of the rats were infected with S. aureus Xen 29 and the left triceps were injected with a 10-fold higher burden of heat-killed S. aureus to induce sterile inflammation. The rats were scanned by PET/CT for 120 min (rats with sterile inflammation in the left triceps) immediately starting from tracer administration. The PET scan was separated into ten frames (1-min) and twenty-two frames (5-min). TACs of infected triceps (blue), inflamed triceps (grey) and blood (left heart ventricle, red) are shown. Data represented as mean with standard error of the mean (n=4). (b) Time-dependent accumulation of 2-[^18F]F-NB in infected and inflamed triceps compared to the blood (left heart ventricle). Data are presented as the mean and standard error of the mean (n=4). […]
S. aureus (Newman or Xen29) was cultured overnight by inoculating 5 μL of bacteria from a glycerol stock into 10 mL of fresh cation-adjusted Mueller-Hinton (CAMH) broth or tryptic soy broth (TSB). […] After imaging, the infected triceps were collected, homogenized in PBS using a hand-held homogenizer, and the bacterial burden at the time of imaging was determined by plating the muscle tissues onto solid MH medium. After overnight incubation at 37° C., CFUs were quantified by enumeration. […]

Compound: CCOC(=O)c1ccc([N+](=O)[O-])cc1[18F] [2-[^18F]F-ENB, Ethyl 2-[^18F]F-4-nitrobenzoate]
- PET signal over the joint region (S. aureus Xen36): a robust radioactive signal was detected over the joint region
- PET signal over the heart region (S. aureus Xen29 [1]): a robust radioactive signal was detected over the heart region
- stability of the nitro group [2]: the nitro group was unaffected
- radioactive components in blood after IV administration ([3]; blood at 5, 30 and 60 min): 2-[^18F]F-NB was the predominant radioactive component at each time point
- radioactive components in urine after IV administration ([3]; urine at 30 and 60 min post injection): the majority of the radioactive signal could be attributed to 2-[^18F]F-NB
- localisation of radioactive signal (S. aureus Xen29 [4]): predominantly observed in the infected triceps

— patent US20230226228A1, “POSITRON IMAGING TOMOGRAPHY IMAGING AGENT COMPOSITION AND METHOD FOR DETECTION OF BACTERIAL INFECTION” (priority 2020, published 2023)
